According to US20240335390A9, “PHARMACEUTICAL COMPOSITIONS OF AMORPHOUS SOLID DISPERSIONS AND METHODS OF PREPARATION THEREOF” (Shenzhen Pharmacin Co., Ltd., priority 2020, published 2024):
Where two headings read alike, the source gives them in different places.

Tests used:
[1] = cited from earlier work
[2] = Kinetic solubility of neratinib maleate ASD powders, pH 4.0 phthalic acid buffer; type: physicochemical; conditions: pH 4.0 phthalic acid buffer solution, 37 °C, pH 4, aqueous buffer, thermodynamic from solid; crystalline
[3] = cited from earlier work; remark: listed apart in the source
[4] = test system: HER2 autophosphorylation; conditions: in vitro; cited from earlier work
[5] = test system: EGFR autophosphorylation; conditions: in vitro; cited from earlier work
[6] = test system: EGFR and/or HER2 expressing carcinoma cell lines; conditions: in vitro; cited from earlier work
[7] = test system: AKT signaling pathway; conditions: in vitro; cited from earlier work
[8] = test system: MAPK signaling pathway; conditions: in vitro; cited from earlier work
[9] = second value listed in the cell

Molecule: Cc1nc(NC(=O)N2CCC[C@H]2C(N)=O)sc1-c1ccnc(C(C)(C)C(F)(F)F)c1 [Alpelisib]
- Measured or Calculated pKas ([1]; first value listed in the cell): 3.3
- Measured or Calculated pKas [1, 9]: 9.4

Molecule: CC1(C)S[C@@H]2[C@H](NC(=O)[C@H](N)c3ccc(O)cc3)C(=O)N2[C@H]1C(=O)O [Amoxicillin]
- Measured or Calculated pKas ([1]; first value listed in the cell): 3.39
- Measured or Calculated pKas [1, 9]: 6.71

Molecule: Cn1cc(-c2cc3c(N4CCN(c5ncc([C@@](C)(N)c6ccc(F)cc6)cn5)CC4)ncnn3c2)cn1 [Avapritinib]
- Measured or Calculated pKas ([1]; first value listed in the cell): 6.97
- Measured or Calculated pKas ([1]; fourth value listed in the cell): 1.51
- Measured or Calculated pKas [1, 9]: 4.57
- Measured or Calculated pKas ([1]; third value listed in the cell): 3.50

Molecule: CCC(C(=O)O)c1ccc(CC(C)C)cc1 (stereo not drawn) [Butibufen]
- Measured or Calculated pKas ([1]; first value listed in the cell): 4.64

Molecule: CC(C(=O)O)c1ccc2c(c1)[nH]c1ccc(Cl)cc12 (stereo not drawn) [Carprofen]
- Measured or Calculated pKas ([1]; first value listed in the cell): 4.63

Molecule: CN(C)[C@@H]1C(O)=C(C(N)=O)C(=O)[C@@]2(O)C(O)=C3C(=O)c4c(O)ccc(Cl)c4[C@@](C)(O)[C@H]3C[C@@H]12 [Chlortetracycline]
- Measured or Calculated pKas ([1]; first value listed in the cell): 3.33 ± 0.30
- Measured or Calculated pKas [1, 9]: 7.55 ± 0.02

Molecule: CC[C@H]1OC(=O)[C@H](C)[C@@H](O[C@H]2C[C@@](C)(OC)[C@@H](O)[C@H](C)O2)[C@H](C)[C@@H](O[C@@H]2O[C@H](C)C[C@H](N(C)C)[C@H]2O)[C@](C)(OC)C[C@@H](C)C(=O)[C@H](C)[C@@H](O)[C@]1(C)O [Clarithromycin]
- Measured or Calculated pKas ([1]; first value listed in the cell): 7.25

Molecule: CN1C[C@@H]2C[C@H]1CN2c1cc2c(cc1F)c(=O)c(C(=O)O)cn2C1CC1 [Danofloxacin]
- Measured or Calculated pKas ([1]; first value listed in the cell): 6.07 ± 0.06
- Measured or Calculated pKas [1, 9]: 8.56 ± 0.07

Molecule: CC(O)c1cc(C(=O)N[C@@H](C)Cn2ccc(-c3ccc(C#N)c(Cl)c3)n2)[nH]n1 (stereo partly drawn) [Darolutamide]
- Measured or Calculated pKas ([1]; first value listed in the cell): 11.75

Molecule: CN(C)[C@@H]1C(O)=C(C(N)=O)C(=O)[C@@]2(O)C(O)=C3C(=O)c4c(O)ccc(Cl)c4[C@@H](O)[C@H]3C[C@@H]12 [Demeclocycline]
- Measured or Calculated pKas ([1]; first value listed in the cell): 3.37 ± 0.30
- Measured or Calculated pKas [1, 9]: 7.36 ± 0.03

Molecule: O=C(O)Cc1ccccc1Nc1c(Cl)cccc1Cl [Diclofenac]
- Measured or Calculated pKas ([1]; first value listed in the cell): 4.16

Molecule: CN1CCN(c2cc3c(cc2F)c(=O)c(C(=O)O)cn3-c2ccc(F)cc2)CC1 [Difloxacin]
- Measured or Calculated pKas ([1]; first value listed in the cell): 5.66 ± 0.04
- Measured or Calculated pKas [1, 9]: 7.24 ± 0.06

Molecule: C[C@H]1c2cccc(O)c2C(=O)C2=C(O)[C@]3(O)C(=O)C(C(N)=O)=C(O)[C@@H](N(C)C)[C@@H]3[C@@H](O)[C@@H]21 [Doxycycline]
- Measured or Calculated pKas ([1]; first value listed in the cell): 3.02 ± 0.30
- Measured or Calculated pKas [1, 9]: 7.97 ± 0.15

Molecule: CCn1cc(C(=O)O)c(=O)c2cc(F)c(N3CCNCC3)nc21 [Enoxacin]
- Measured or Calculated pKas ([1]; first value listed in the cell): 5.05 ± 0.08
- Measured or Calculated pKas [1, 9]: 6.25 ± 0.05

Molecule: CCN1CCN(c2cc3c(cc2F)c(=O)c(C(=O)O)cn3C2CC2)CC1 [Enrofloxacin]
- Measured or Calculated pKas ([1]; first value listed in the cell): 5.88 ± 0.03
- Measured or Calculated pKas [1, 9]: 7.74 ± 0.03

Molecule: CNC(=O)c1ccc(N2C(=S)N(c3ccc(C#N)c(C(F)(F)F)c3)C(=O)C2(C)C)cc1F [Enzalutamide]
- Measured or Calculated pKas ([1]; first value listed in the cell): 3-11

Molecule: C#Cc1cccc(Nc2ncnc3cc(OCCOC)c(OCCOC)cc23)c1.Cl [Erlotinib]
- Measured or Calculated pKas ([1]; first value listed in the cell): 5.4

Molecule: CN1CCN(c2c(F)cc3c(=O)c(C(=O)O)cn(CCF)c3c2F)CC1 [Fleroxacin]
- Measured or Calculated pKas ([1]; first value listed in the cell): 5.46
- Measured or Calculated pKas [1, 9]: 8.00

Molecule: CC(C(=O)O)c1ccc(-c2ccccc2)c(F)c1 (stereo not drawn) [Flurbiprofen]
- Measured or Calculated pKas ([1]; first value listed in the cell): 4.35

Molecule: COc1cc2ncnc(Nc3ccc(F)c(Cl)c3)c2cc1OCCCN1CCOCC1 [Gefitinib]
- Measured or Calculated pKas ([1]; first value listed in the cell): 7.2

Molecule: CC(C)Cc1ccc(C(C)C(=O)O)cc1 (stereo not drawn) [Ibuprofen]
- Measured or Calculated pKas ([1]; first value listed in the cell): 4.51

Molecule: CC(CCc1ccccc1)NCC(O)c1ccc(O)c(C(N)=O)c1 (stereo not drawn) [Labetalol]
- Measured or Calculated pKas ([1]; first value listed in the cell): 7.35

Molecule: CN1CCN(c2c(F)cc3c(=O)c(C(=O)O)cn4c3c2OCN4C)CC1 [Marbofloxacin]
- Measured or Calculated pKas ([1]; first value listed in the cell): 5.69 ± 0.10
- Measured or Calculated pKas [1, 9]: 8.02 ± 0.20

Molecule: C=C1c2c(Cl)ccc(O)c2C(=O)C2=C(O)[C@]3(O)C(=O)C(C(N)=O)=C(O)[C@@H](N(C)C)[C@@H]3[C@@H](O)[C@H]12 [Meclocycline]
- Measured or Calculated pKas ([1]; first value listed in the cell): 4.05 ± 0.30
- Measured or Calculated pKas [1, 9]: 6.87 ± 0.39

Molecule: CCOc1cc2ncc(C#N)c(Nc3ccc(OCc4ccccn4)c(Cl)c3)c2cc1NC(=O)/C=C/CN(C)C.O=C(O)/C=C\C(=O)O [Neratinib maleate, (E)-N-(4-((3-chloro-4-(pyridin-2-ylmethoxy)phenyl)amino)-3-cyano-7-ethoxyquinolin-6-yl)-4-(dimethylamino)but-2-enamide maleate]
- solubility [2]: < 300 µg/mL
- solubility ([3]; pH 1.2): 32900 µg/mL
- solubility according to the product label ([3]; pH 1.2): sparingly soluble
- solubility according to the product label ([3]; pH 5.0): insoluble
- solubility ([3]; pH approximately 5.0): ≤ 80 µg/mL

Molecule: CCOc1cc2ncc(C#N)c(Nc3ccc(OCc4ccccn4)c(Cl)c3)c2cc1NC(=O)/C=C/CN(C)C [Neratinib, neratinib]
- HER2 autophosphorylation [4]: reduces
- EGFR autophosphorylation [5]: reduces
- antitumor activity in carcinoma cell lines [6]: showed antitumor activity
- downstream AKT signaling pathway [7]: reduces
- downstream MAPK signaling pathway [8]: reduces

Molecule: CC1COc2c(N3CCN(C)CC3)c(F)cc3c(=O)c(C(=O)O)cn1c23 (stereo not drawn) [Ofloxacin]
- Measured or Calculated pKas ([1]; first value listed in the cell): 6.22 ± 0.05
- Measured or Calculated pKas [1, 9]: 7.81 ± 0.08

Molecule: COc1ccc2[nH]c([S+]([O-])Cc3ncc(C)c(OC)c3C)nc2c1 (stereo not drawn) [Omeprazole]
- Measured or Calculated pKas ([1]; first value listed in the cell): 4.14
- Measured or Calculated pKas [1, 9]: 8.90

Molecule: C=CCOc1ccccc1OCC(O)CNC(C)C (stereo not drawn) [Oxprenolol]
- Measured or Calculated pKas ([1]; first value listed in the cell): 9.62

Molecule: CN(C)[C@@H]1C(O)=C(C(N)=O)C(=O)[C@@]2(O)C(O)=C3C(=O)c4c(O)cccc4[C@@](C)(O)[C@H]3[C@H](O)[C@@H]12 [Oxytetracycline]
- Measured or Calculated pKas ([1]; first value listed in the cell): 3.04
- Measured or Calculated pKas [1, 9]: 8.00

Molecule: Cc1ccc(Nc2nccc(N(C)c3ccc4c(C)n(C)nc4c3)n2)cc1S(N)(=O)=O.Cl [Pazopanib HCL]
- Measured or Calculated pKas ([1]; first value listed in the cell): 2.1
- Measured or Calculated pKas [1, 9]: 6.4
- Measured or Calculated pKas ([1]; third value listed in the cell): 10.2

Molecule: CCn1cc(C(=O)O)c(=O)c2cnc(N3CCNCC3)nc21 [Pipemidic acid]
- Measured or Calculated pKas ([1]; first value listed in the cell): 5.42 ± 0.05
- Measured or Calculated pKas [1, 9]: 8.18 ± 0.09

Molecule: CC(=O)Nc1ccc(OCC(O)CNC(C)C)cc1 (stereo not drawn) [Practolol]
- Measured or Calculated pKas ([1]; first value listed in the cell): 9.41

Molecule: CCN(CC)CCOC(=O)c1ccc(N)cc1 [Procaine]
- Measured or Calculated pKas ([1]; first value listed in the cell): 2.28 ± 0.08
- Measured or Calculated pKas [1, 9]: 9.02 ± 0.01

Molecule: CC(C)NCC(O)COc1cccc2ccccc12 (stereo not drawn) [Propranolol]
- Measured or Calculated pKas ([1]; first value listed in the cell): 9.49 ± 0.2

Molecule: CC[C@H]1OC(=O)[C@H](C)[C@@H](OC2C[C@@](C)(OC)C(O)C(C)O2)[C@H](C)[C@@H](O[C@@H]2OC(C)CC(N(C)C)C2O)[C@](C)(O)C[C@@H](C)/C(=N\OCOCCOC)[C@H](C)[C@@H](O)[C@]1(C)O (stereo partly drawn) [Roxithromycin]
- Measured or Calculated pKas ([1]; first value listed in the cell): 9.17 ± 0.30

Molecule: O=C(O)c1cn(-c2ccc(F)cc2)c2cc(N3CCNCC3)c(F)cc2c1=O [Sarafloxacin]
- Measured or Calculated pKas ([1]; first value listed in the cell): 5.62 ± 0.08
- Measured or Calculated pKas [1, 9]: 8.18 ± 0.09

Molecule: CC(=O)NS(=O)(=O)c1ccc(N)cc1 [Sulfacetamide]
- Measured or Calculated pKas ([1]; first value listed in the cell): 1.95 ± 0.11
- Measured or Calculated pKas [1, 9]: 5.30 ± 0.05

Molecule: Nc1ccc(S(=O)(=O)Nc2ccc(Cl)nn2)cc1 [Sulfachlorpyridazine]
- Measured or Calculated pKas ([1]; first value listed in the cell): 1.87 ± 0.30
- Measured or Calculated pKas [1, 9]: 5.45 ± 0.06

Molecule: Nc1ccc(S(=O)(=O)Nc2ncccn2)cc1 [Sulfadiazine]
- Measured or Calculated pKas ([1]; first value listed in the cell): 2.10
- Measured or Calculated pKas [1, 9]: 6.28

Molecule: [H]/N=C(/N)NS(=O)(=O)c1ccc(N)cc1 [Sulfaguanidine]
- Measured or Calculated pKas ([1]; first value listed in the cell): 1.55
- Measured or Calculated pKas [1, 9]: 11.24

Molecule: Cc1ccnc(NS(=O)(=O)c2ccc(N)cc2)n1 [Sulfamerazine]
- Measured or Calculated pKas ([1]; first value listed in the cell): 2.17
- Measured or Calculated pKas [1, 9]: 6.77

Molecule: Cc1cc(C)nc(NS(=O)(=O)c2ccc(N)cc2)n1 [Sulfamethazine]
- Measured or Calculated pKas ([1]; first value listed in the cell): 2.28
- Measured or Calculated pKas [1, 9]: 7.42

Molecule: Cc1nnc(NS(=O)(=O)c2ccc(N)cc2)s1 [Sulfamethizole]
- Measured or Calculated pKas ([1]; first value listed in the cell): 1.86 ± 0.30
- Measured or Calculated pKas [1, 9]: 5.29 ± 0.04

Molecule: Nc1ccc(S(=O)(=O)Nc2nccs2)cc1 [Sulfathiazole]
- Measured or Calculated pKas ([1]; first value listed in the cell): 2.08
- Measured or Calculated pKas [1, 9]: 7.07

Molecule: CC(C)(C)NC[C@H](O)COc1nsnc1N1CCOCC1 [Timolol]
- Measured or Calculated pKas ([1]; first value listed in the cell): 9.34

Molecule: COc1cc(Cc2cnc(N)nc2N)cc(OC)c1OC [Trimethoprim]
- Measured or Calculated pKas ([1]; first value listed in the cell): 3.23 ± 0.30
- Measured or Calculated pKas [1, 9]: 6.76 ± 0.12

Molecule: Fenbufen
- Measured or Calculated pKas ([1]; first value listed in the cell): 4.56

Molecule: Tylosin
- Measured or Calculated pKas ([1]; first value listed in the cell): 3.31 ± 0.30
- Measured or Calculated pKas [1, 9]: 7.50 ± 0.13
